Measurements reported in publication PMC11551917 (RSC Advances, 2024).

Target: Jack-bean urease (Canavalia ensiformis, UniProt P07374)
Assay: indophenol ammonia assay, […] nm
Assay type: biochemical

Sequence of Jack-bean urease (P07374 whole entry, looked up): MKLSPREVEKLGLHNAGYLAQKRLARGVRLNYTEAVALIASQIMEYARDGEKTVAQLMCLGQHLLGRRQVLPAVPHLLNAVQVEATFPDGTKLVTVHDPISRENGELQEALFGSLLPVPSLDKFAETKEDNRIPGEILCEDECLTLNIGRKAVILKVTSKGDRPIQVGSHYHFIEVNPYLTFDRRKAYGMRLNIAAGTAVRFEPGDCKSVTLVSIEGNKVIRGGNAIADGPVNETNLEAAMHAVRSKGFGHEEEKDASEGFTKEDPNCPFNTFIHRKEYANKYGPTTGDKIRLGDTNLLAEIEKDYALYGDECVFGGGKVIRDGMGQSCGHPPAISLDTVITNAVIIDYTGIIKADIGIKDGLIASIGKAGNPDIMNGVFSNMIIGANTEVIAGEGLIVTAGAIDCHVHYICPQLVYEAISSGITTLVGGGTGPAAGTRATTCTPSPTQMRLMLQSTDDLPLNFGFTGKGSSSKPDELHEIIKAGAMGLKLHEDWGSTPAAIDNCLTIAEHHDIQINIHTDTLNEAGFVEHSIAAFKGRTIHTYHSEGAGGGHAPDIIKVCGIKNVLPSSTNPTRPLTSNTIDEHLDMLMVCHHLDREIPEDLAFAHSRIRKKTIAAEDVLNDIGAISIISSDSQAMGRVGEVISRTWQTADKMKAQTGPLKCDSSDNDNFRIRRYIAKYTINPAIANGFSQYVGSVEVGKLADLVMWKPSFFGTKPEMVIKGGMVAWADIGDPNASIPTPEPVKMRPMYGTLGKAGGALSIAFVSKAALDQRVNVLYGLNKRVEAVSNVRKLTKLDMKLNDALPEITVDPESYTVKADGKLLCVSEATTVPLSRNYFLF

`NC(N)=S` [Thiourea] was tested, and the IC50 was 24.5 ± 0.47 µM.

Work on `Nc1cccc(C(=O)O)c1` [3-ABA] yielded an IC50 of 31.4 ± 0.48 µM.
